# Structures can show the parent of a compound that is named as a salt.
# Assays:
# [1] = UV-VIS absorption spectra (optical property test); format: physicochemical; details: 10 μM, DMSO solution; for Absorbance × 10^4: at maximum absorption peak
# Procedure: The UV-VIS absorption spectra of the compounds (10 μM, DMSO solution) were detected using Shimadzu UV2600 spectrophotometer, and the maximum absorption peak and absorbance of each compound were obtained.
# [2] = tested on: human bladder cancer cell line UM-UC-3; assay: In vitro imaging effect test with addition of BSP, UM-UC-3; format: cell-based; details: 250 μM BSP, compound 1-20 μM with surfactin 1:5, 30 minutes
# Procedure: UM-UC-3 (1.5×10^4/well) were cultured in EMEM medium (containing 10% fetal bovine serum (FBS) and 1% antibiotics (100 U/mL penicillin and 100 U/mL streptomycin)) and seeded in a 96-well plate in advance. The plate was cultured in a 5% CO2 cell culture incubator at 37° C. overnight. The following day, the culture medium was sucked away, and 250 μM of BSP was added to the test wells and preconditioned for 10 minutes, followed by addition of the culture medium containing an appropriate concentration (1-20 μM) of the compound and surfactin (the molar ratio of the test compound to the surfactin being 1:5) with or without 250 μM of BSP, and then incubated for 30 minutes. The cells were rinsed three times with PBS solution, and the near-infrared fluorescence intensity in the bladder cancer cells was observed using an integrated fluorescence microscopic imaging system from Keyence. The conditions for near-infrared photography were Ex=775/50 nm and Em=845/55 nm.
Molecule,Absorption peak [1] [nm],Absorbance × 10^4 [1],Uptake by UM-UC-3 with or without BSP [2]
"CC[N+]1=C(/C=C/C2=C(Cl)C(=C/C=C3/N(CCCCCC(=O)Oc4ccccc4)c4ccccc4C3(C)C)/CC2)C(C)(C)c2ccccc21 [Example 4, 2-((E)-2-((E)-2-chloro-3-(2-((E)-3,3-dimethyl-1-(6-oxo-6-phenoxyhexyl)indolin-2-ylidene)ethenyl)cyclopent-1-en-1-yl)ethenyl)-1-ethyl-3,3-dimethyl-3H-indol-1-ium Chloride]",821,2.36,may be weakened or enhanced by BSP
"CC[N+]1=C(/C=C/C2=C(Cl)C(=C/C=C3/N(CCCCCC(=O)Oc4ccccc4)c4ccccc4C3(C)C)/CCC2)C(C)(C)c2ccccc21 [Example 12a, 2-((E)-2-((E)-2-chloro-3-(2-((E)-3,3-dimethyl-1-(6-oxo-6-phenoxyhexyl)indolin-2-ylidene)ethenyl)cyclohex-1-en-1-yl)ethenyl)-1-ethyl-3,3-dimethyl-3H-indol-1-ium chloride, reference compound]",–,–,may be weakened or enhanced by BSP
"CC[N+]1=C(/C=C/C2=C(Cl)C(=C/C=C3/N(Cc4ccc(C(=O)Oc5ccccc5)cc4)c4ccccc4C3(C)C)/CCC2)C(C)(C)c2ccccc21 [Example 6, 2-((E)-2-((E)-2-chloro-3-(2-((E)-3,3-dimethyl-1-(4-(phenoxycarbonyl)bromo)indolin-2-ylidene)ethenyl)cyclohex-1-en-1-yl)ethenyl)-1-ethyl-3,3-dimethyl-3H-indol-1-ium Chloride]",795,1.8,may be weakened or enhanced by BSP
CC[N+]1=C(/C=C/C2=C(Cl)C(=C/C=C3/N(CCCCCC(=O)Oc4ccccc4)c4ccc5ccccc5c4C3(C)C)/CCC2)C(C)(C)c2c1ccc1ccccc21 [Example 2],833.5,2.09,may be weakened or enhanced by BSP
"CC[N+]1=C(/C=C/C2=C(Oc3ccc(S(=O)(=O)O)cc3)C(=C/C=C3/N(CCCCCC(=O)Oc4ccccc4)c4ccccc4C3(C)C)/CCC2)C(C)(C)c2ccccc21 [Example 20, 2-((E)-2-((E)-3-(2-((E)-3,3-dimethyl-1-(6-oxo-6-phenoxyhexyl)indol-2-methylene)ethenyl)-2-(4-sulfophenoxy)cyclohex-1-en-1-yl)ethenyl)-1-ethyl-3,3-dimethyl-3H-indol-1-ium Formate]",782,2.60,–
CC1(C)C(/C=C/C2=C(Cl)C(=C/C=C3/N(CCCCCC(=O)O)c4ccccc4C3(C)C)/CCC2)=[N+](CCCCCC(=O)O)c2ccccc21 [Example 85B],796.5,1.397,–
"C[N+]1=C(/C=C/C2=C(Cl)C(=C/C=C3/N(CCOCCOCCOCc4ccccc4)c4ccccc4C3(C)C)/CC2)C(C)(C)c2ccccc21 [Example 55, 2-((E)-2-((E)-3-(2-((E)-1-(2-(2-(2-(benzyloxy)ethoxy)ethoxy)ethyl)-3,3-dimethylindolin-2-ylidene)ethenyl)-2-chlorocyclopent-1-en-1-yl)ethenyl)-1,3,3-trimethyl-3H-indol-1-ium Formate]",–,3.48,–
"CC[N+]1=C(/C=C/C2=C(Oc3ccccc3)C(=C/C=C3/N(CCCCCC(=O)Oc4ccccc4)c4ccccc4C3(C)C)/CCC2)C(C)(C)c2ccccc21 [Example 12, 2-((E)-2-((E)-3-(2-((E)-3,3-dimethyl-1-(6-oxo-6-phenoxyhexyl)indolin-2-ylidene)ethenyl)-2-phenoxycyclohex-1-en-1-yl)ethenyl)-1-ethyl-3,3-dimethyl-3H-indol-1-ium Chloride]",781.5,2.07,–
"2-((E)-2-((E)-2-chloro-3-(2-((E)-3,3-dimethyl-1-(2-((5-oxo-5-phenoxypentyl)oxy)ethyl) indolin-2-ylidene)ethenyl)cyclohex-1-en-1-yl)ethenyl)-3,3-dimethyl-1-(2-((5-oxo-5-phenoxypentyl)oxy)ethyl)-3H-indol-1-ium [Example 37B]",801,1.563,–

# Continued, in another order:
Absorption peak [1] [nm],Absorbance × 10^4 [1],Molecule,Uptake by UM-UC-3 with or without BSP [2]
–,0.46,CC[N+]1=C(/C=C/C2=C(Cl)C(=C/C=C3/N(CCOCCC(=O)O)c4ccccc4C3(C)C)/CCC2)C(C)(C)c2cc(C(=O)O)ccc21.[Cl-] [Example 91],–
827,1.97,"CC[N+]1=C(/C=C/C2=C(Cl)C(=C/C=C3/N(CCCCCC(=O)Oc4ccccc4)c4ccccc4C3(C)C)/CC2)C(C)(C)c2cc(S(=O)(=O)O)ccc21 [Example 22, 2-((E)-2-((E)-2-chloro-3-(2-((E)-3,3-dimethyl-1-(6-oxo-6-phenoxyhexyl)indolin-2-ylidene)ethenyl)cyclopent-1-en-1-yl)ethenyl)-1-ethyl-3,3-dimethyl-5-sulfonyl-3H-indol-1-ium Chloride]",–
–,2.02,"CC1(C)C(/C=C/C2=C(Cl)C(=C/C=C3/N(CCCCCC(=O)Oc4ccccc4)c4ccccc4C3(C)C)/CCC2)=[N+](CCO)c2ccccc21 [Example 48, 2-((E)-2-((E)-2-chloro-3-(2-((E)-3,3-dimethyl-1-(6-oxo-6-phenoxyhexyl)indolin-2-ylidene)ethenyl)cyclohex-1-en-1-yl)ethenyl)-1-(2-hydroxyethyl)-3,3-dimethyl-3H-indol-1-ium Formate]",–
757.5,2.483,CC1(C)C(/C=C/C2=C(Oc3ccc(S(=O)(=O)O)cc3)C(=C/C=C3/N(CCCCCC(=O)Oc4ccccc4)c4ccccc4C3(C)C)/C[N+](C)(C)C2)=[N+](CCCCCC(=O)Oc2ccccc2)c2ccccc21 [Example 103],–
–,1.49,CC[N+]1=C(/C=C/C2=C(Cl)C(=C/C=C3/N(CCCCCC(=O)O)c4ccccc4C3(C)C)/CCC2)C(C)(C)c2cc(C(=O)O)ccc21.[Cl-] [Example 92],–
796.5,2.239,CC1(C)C(/C=C/C2=C(Cl)C(=C/C=C3/N(CCCCCC(=O)O)c4ccccc4C3(C)C)/CCC2)=[N+](CCCCCC(=O)Oc2ccccc2)c2ccccc21 [Example 85A],–
796.5,2.29,"CC1(C)C(/C=C/C2=C(Cl)C(=C/C=C3/N(CCCCCC(=O)Nc4ccccc4)c4ccccc4C3(C)C)/CCC2)=[N+](CCCCCC(=O)O)c2ccccc21 [Example 27A, 1-(5-carboxypentyl)-2-((E)-2-((E)-2-chloro-3-(2-((E)-3,3-dimethyl-1-(6-oxo-6-(phenylamino)hexyl)indolin-2-ylidene)ethenyl)cyclohex-1-en-1-yl)ethenyl)-3,3-dimethyl-3H-indol-1-ium 2,2,2-trifluoroacetate]",–

# Reference: patent publication US20260191998A1, “INDOLE PHTHALOCYANINE COMPOUND, PREPARATION METHOD THEREFOR, AND USE THEREOF IN TUMOR DIAGNOSIS IMAGING” (JIANGSU YAHONG MEDITECH CO., LTD., priority 2022, published 2026)
